ChEMBL document CHEMBL3580539, “Discovery of small molecule inhibitors targeting the SUMOSIM interaction using a protein interface consensus approach” (Medchemcomm, 2014)

Biological target: Small ubiquitin-related modifier 2/3 (SUMO 2/3) (Homo sapiens, UniProt P61956+P55854)
Assay: Binding affinity to His-tagged SUMO2/3 (unknown origin) expressed in Escherichia coli BL21 (DE3) measured over 120 secs by SPR analysis

Row | Kd [µM] | Compound
1 | 1.9 | CC(NS(=O)(=O)c1ccc(Cl)c(Cl)c1)C(=O)NNC(=O)c1ccccc1O (stereo not drawn)
2 | 59 | COCC(C)n1c(NCc2ccccn2)nc2ccccc2c1=O (stereo not drawn)
3 | 29 | C=CCNc1nc(NCc2ccccn2)nc2ccccc12
